One assay addresses LXRβ (Homo sapiens (Human), UniProt P55055). The assay is described as follows: In vitro assay LXRβ: PathHunter NHR CHO cells, LXRβ / Steroid Receptor Co-activator Peptide enzyme fragment complementation. The format is cell-based. The following applies: PathHunter NHR CHO cells, full-length human LXRβ and SRCP, chemiluminescent signal; read-out: LXRβ PPI. The gist of the method: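 Co-activator recruitment measured by chemiluminescence after signal generation. The CHO line carries full-length human LXRβ tagged with ProLink and an SRCP–enzyme acceptor fusion in the nucleus; cells sat overnight at 37° C before testing, in charcoal-dextran filtered serum medium with 1% final vehicle.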

For the next assay, the target named is SREBP-2 (Homo sapiens (Human), UniProt Q12772). The assay is described as follows: In vitro assay SREBP-2: PathHunter U2OS SREBP-2 Nuclear Translocation Cell Line, U18666A-stimulated. The format is cell-based. The conditions noted are these: PathHunter U2OS SREBP-2 nuclear translocation cells, U18666A 10 μM, overnight (16 hours).

Data on 16 compounds can be found in patent US20230340011A1 (Asteroid Therapeutics, priority 2022, published 2023).

Chain of LXRβ (P55055 whole entry, the tested form may be a part): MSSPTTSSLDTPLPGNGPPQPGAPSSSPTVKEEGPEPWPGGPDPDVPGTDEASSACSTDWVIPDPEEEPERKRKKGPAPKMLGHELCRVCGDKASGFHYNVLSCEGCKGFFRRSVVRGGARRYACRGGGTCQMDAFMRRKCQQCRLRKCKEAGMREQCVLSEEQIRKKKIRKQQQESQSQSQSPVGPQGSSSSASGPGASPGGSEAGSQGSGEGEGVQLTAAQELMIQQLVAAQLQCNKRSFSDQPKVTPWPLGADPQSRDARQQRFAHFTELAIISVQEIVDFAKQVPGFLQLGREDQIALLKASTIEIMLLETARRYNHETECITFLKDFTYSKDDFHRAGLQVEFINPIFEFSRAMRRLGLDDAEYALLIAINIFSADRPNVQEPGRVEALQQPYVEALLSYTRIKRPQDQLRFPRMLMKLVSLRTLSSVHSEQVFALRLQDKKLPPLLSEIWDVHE

Turning to `C[C@H](CCC(=O)N1CCN(c2ccnc(OCCO)n2)CC1)[C@H]1CC[C@H]2[C@@H]3CC=C4C[C@@H](O)CC[C@]4(C)[C@H]3CC[C@]12C` [Example 564, (4R)-4-[(1R,3aS,3bS,7S,9aR,9bS,11aR)-7-hydroxy-9a,11a-dimethyl-1H,2H,3H,3aH,3bH,4H,6H,7H,8H,9H,9aH,9bH,10H,11H,11aH-cyclopenta[a]phenanthren-1-yl]-1-{4-[2-(2-hydroxyethoxy)pyrimidin-4-yl]piperazin-1-yl}pentan-1-one], the EC50 on LXRβ was greater than 10 µM. Further, the IC50 (in general, the concentration needed to halve the response being measured) against SREBP-2 is less than 0.25 µM.

Turning to `C[C@H](CCC(=O)N1CCN(C(=O)c2cnn(C)c2)[C@@H](C)C1)[C@H]1CC[C@H]2[C@@H]3CC=C4C[C@@H](O)CC[C@]4(C)[C@H]3CC[C@]12C` [Example 565, (4R)-4-[(1R,3aS,3bS,7S,9aR,9bS,11aR)-7-hydroxy-9a,11a-dimethyl-1H,2H,3H,3aH,3bH,4H,6H,7H,8H,9H,9aH,9bH,10H,11H,11aH-cyclopenta[a]phenanthren-1-yl]-1-[(3S)-3-methyl-4-(1-methyl-1H-pyrazole-4-carbonyl)piperazin-1-yl]pentan-1-one], the EC50 at LXRβ was greater than 10 µM. Also, at SREBP-2, the half-inhibitory concentration (IC50) was less than 0.25 µM.

Regarding `COC(=O)N1CCN(C(=O)CC[C@@H](C)[C@H]2CC[C@H]3[C@@H]4CC=C5C[C@@H](O)CC[C@]5(C)[C@H]4CC[C@]23C)C[C@@H]1C` [Example 566, Methyl (2S)-4-[(4R)-4-[(1R,3aS,3bS,7S,9aR,9bS,11aR)-7-hydroxy-9a,11a-dimethyl-1H,2H,3H,3aH,3bH,4H,6H,7H,8H,9H,9aH,9bH,10H,11H,11aH-cyclopenta[a]phenanthren-1-yl]pentanoyl]-2-methylpiperazine-1-carboxylate], the EC50 on LXRβ was greater than 10 µM. Moreover, the IC50 against SREBP-2 is less than 0.25 µM.

In the case of `C[C@H](CCC(=O)N1CCN(c2ccncc2)[C@@H](C)C1)[C@H]1CC[C@H]2[C@@H]3CC=C4C[C@@H](O)CC[C@]4(C)[C@H]3CC[C@]12C` [Example 567, (R)-4-((3S,8S,9S,10R,13R,14S,17R)-3-hydroxy-10,13-dimethyl-2,3,4,7,8,9,10,11,12,13,14,15,16,17-tetradecahydro-1H-cyclopenta[a]phenanthren-17-yl)-1-((S)-3-methyl-4-(pyridin-4-yl)piperazin-1-yl)pentan-1-one], on LXRβ, the EC50 was greater than 10 µM. At SREBP-2, the IC50 was less than 0.25 µM.

For the compound `C[C@H](CCC(=O)N1CCN(C(=O)c2cnccn2)[C@@H](C)C1)[C@H]1CC[C@H]2[C@@H]3CC=C4C[C@@H](O)CC[C@]4(C)[C@H]3CC[C@]12C` [Example 568, (R)-4-((3S,8S,9S,10R,13R,14S,17R)-3-hydroxy-10,13-dimethyl-2,3,4,7,8,9,10,11,12,13,14,15,16,17-tetradecahydro-1H-cyclopenta[a]phenanthren-17-yl)-1-((S)-3-methyl-4-(pyrazine-2-carbonyl)piperazin-1-yl)pentan-1-one], the EC50 at LXRβ is greater than 10 µM. Also, the IC50 at SREBP-2 is less than 0.25 µM.

`CCC(=O)N1CCN(C(=O)CC[C@@H](C)[C@H]2CC[C@H]3[C@@H]4CC=C5C[C@@H](O)CC[C@]5(C)[C@H]4CC[C@]23C)C[C@@H]1C` [Example 569, (R)-4-((3S,8S,9S,10R,13R,14S,17R)-3-hydroxy-10,13-dimethyl-2,3,4,7,8,9,10,11,12,13,14,15,16,17-tetradecahydro-1H-cyclopenta [a]phenanthren-17-yl)-1-((S)-3-methyl-4-propionylpiperazin-1-yl)pentan-1-one]: the EC50 at LXRβ is greater than 10 µM. This compound also yielded a 50% inhibitory concentration (IC50) on SREBP-2 of less than 0.25 µM.

`C[C@H](CCC(=O)N1CCN(C(=O)OC2CC2)[C@@H](C)C1)[C@H]1CC[C@H]2[C@@H]3CC=C4C[C@@H](O)CC[C@]4(C)[C@H]3CC[C@]12C` [Example 570, Cyclopropyl(S)-4-((R)-4-((3S,8S,9S,10R,13R,14S,17R)-3-hydroxy-10,13-dimethyl-2,3,4,7,8,9,10,11,12,13,14,15,16,17-tetradecahydro-1H-cyclopenta[a]phenanthren-17-yl)pentanoyl)-2-methylpiperazine-1-carboxylate]: the EC50 on LXRβ was greater than 10 µM. Further, the half-maximal inhibitory concentration (IC50) at SREBP-2 was less than 0.25 µM.

Turning to `C[C@H](CCC(=O)N1CC[C@H](Oc2ccncc2)[C@@H](C)C1)[C@H]1CC[C@H]2[C@@H]3CC=C4C[C@@H](O)CC[C@]4(C)[C@H]3CC[C@]12C` [Example 571, (R)-4-((3S,8S,9S,10R,13R,14S,17R)-3-hydroxy-10,13-dimethyl-2,3,4,7,8,9,10,11,12,13,14,15,16,17-tetradecahydro-1H-cyclopenta[a]phenanthren-17-yl)-1-((3S,4S)-3-methyl-4-(pyridin-4-yloxy)piperidin-1-yl)pentan-1-one], the EC50 at LXRβ is greater than 10 µM. This compound yielded an IC50 against SREBP-2 of less than 0.25 µM.

With `C[C@H](CCC(=O)N1CC[C@@H](Oc2ccncc2)[C@@H](C)C1)[C@H]1CC[C@H]2[C@@H]3CC=C4C[C@@H](O)CC[C@]4(C)[C@H]3CC[C@]12C` [Example 572, (R)-4-((3S,8S,9S,10R,13R,14S,17R)-3-hydroxy-10,13-dimethyl-2,3,4,7,8,9,10,11,12,13,14,15,16,17-tetradecahydro-1H-cyclopenta[a]phenanthren-17-yl)-1-((3S,4R)-3-methyl-4-(pyridin-4-yloxy)piperidin-1-yl)pentan-1-one], the EC50 on LXRβ is greater than 10 µM. At SREBP-2, this compound displayed an IC50 of less than 0.25 µM.

On to `C[C@H](CCC(=O)N1CCN(C(=O)N(C)C)[C@@H](C)C1)[C@H]1CC[C@H]2[C@@H]3CC=C4C[C@@H](O)CC[C@]4(C)[C@H]3CC[C@]12C` [Example 573, (2S)-4-[(4R)-4-[(1R,3aS,3bS,7S,9aR,9bS,11aR)-7-hydroxy-9a,11a-dimethyl-1H,2H,3H,3aH,3bH,4H,6H,7H,8H,9H,9aH,9bH,10H,11H,11aH-cyclopenta[a]phenanthren-1-yl]pentanoyl]-N,N,2-trimethylpiperazine-1-carboxamide], for which the EC50 on LXRβ is greater than 10 µM. The same compound showed a half-maximal inhibitory concentration (IC50) at SREBP-2 of less than 0.25 µM.

In the case of `C[C@H](CCC(=O)N1CCN(C(=O)c2cn(C)nn2)[C@@H](C)C1)[C@H]1CC[C@H]2[C@@H]3CC=C4C[C@@H](O)CC[C@]4(C)[C@H]3CC[C@]12C` [Example 574, (R)-4-((3S,8S,9S,10R,13R,14S,17R)-3-hydroxy-10,13-dimethyl-2,3,4,7,8,9,10,11,12,13,14,15,16,17-tetradecahydro-1H-cyclopenta[a]phenanthren-17-yl)-1-((S)-3-methyl-4-(1-methyl-1H-1,2,3-triazole-4-carbonyl)piperazin-1-yl)pentan-1-one], the EC50 on LXRβ is greater than 10 µM. Also, at SREBP-2, the IC50 is less than 0.25 µM.

`C[C@H](CCC(=O)N1CCN(c2ccncn2)[C@@H](C)C1)[C@H]1CC[C@H]2[C@@H]3CC=C4C[C@@H](O)CC[C@]4(C)[C@H]3CC[C@]12C` [Example 575, (4R)-4-[(1R,3aS,3bS,7S,9aR,9bS,11aR)-7-hydroxy-9a,11a-dimethyl-1H,2H,3H,3aH,3bH,4H,6H,7H,8H,9H,9aH,9bH,10H,11H,11aH-cyclopenta[a]phenanthren-1-yl]-1-[(3S)-3-methyl-4-(pyrimidin-4-yl)piperazin-1-yl]pentan-1-one]: at LXRβ, the EC50 was greater than 10 µM. The IC50 at SREBP-2 was less than 0.25 µM.

For `CC(C)OC(=O)N1CCN(C(=O)CC[C@@H](C)[C@H]2CC[C@H]3[C@@H]4CC=C5C[C@@H](O)CC[C@]5(C)[C@H]4CC[C@]23C)C[C@@H]1C` [Example 576, isopropyl(S)-4-((R)-4-((3S,8S,9S,10R,13R,14S,17R)-3-hydroxy-10,13-dimethyl-2,3,4,7,8,9,10,11,12,13,14,15,16,17-tetradecahydro-1H-cyclopenta[a]phenanthren-17-yl)pentanoyl)-2-methylpiperazine-1-carboxylate], the EC50 on LXRβ was greater than 10 µM. The compound also displayed a 50% inhibitory concentration (IC50) against SREBP-2 of less than 0.25 µM.

As for `C[C@H](CCC(=O)N1CCN(C(=O)c2ccncc2)[C@@H](C)C1)[C@H]1CC[C@H]2[C@@H]3CC=C4C[C@@H](O)CC[C@]4(C)[C@H]3CC[C@]12C` [Example 577, (R)-4-((3S,8S,9S,10R,13R,14S,17R)-3-hydroxy-10,13-dimethyl-2,3,4,7,8,9,10,11,12,13,14,15,16,17-tetradecahydro-1H-cyclopenta[a]phenanthren-17-yl)-1-((S)-4-isonicotinoyl-3-methylpiperazin-1-yl)pentan-1-one], the EC50 on LXRβ is greater than 10 µM. The compound further showed an IC50 on SREBP-2 of less than 0.25 µM.

For `C[C@H](CCC(=O)N1CCN(C(=O)c2cnn(C)c2)C[C@@H]1C)[C@H]1CC[C@H]2[C@@H]3CC=C4C[C@@H](O)CC[C@]4(C)[C@H]3CC[C@]12C` [Example 578, (R)-4-((3S,8S,9S,10R,13R,14S,17R)-3-hydroxy-10,13-dimethyl-2,3,4,7,8,9,10,11,12,13,14,15,16,17-tetradecahydro-1H-cyclopenta[a]phenanthren-17-yl)-1-((S)-2-methyl-4-(1-methyl-1H-pyrazole-4-carbonyl)piperazin-1-yl)pentan-1-one], the EC50 on LXRβ was greater than 10 µM. At SREBP-2, this compound registered a half-maximal inhibitory concentration (IC50) of less than 0.25 µM.

For the compound `COC(=O)N1CCN(C(=O)CC[C@@H](C)[C@H]2CC[C@H]3[C@@H]4CC=C5C[C@@H](O)CC[C@]5(C)[C@H]4CC[C@]23C)[C@@H](C)C1` [Example 579, Methyl(S)-4-((R)-4-((3S,8S,9S,10R,13R,14S,17R)-3-hydroxy-10,13-dimethyl-2,3,4,7,8,9,10,11,12,13,14,15,16,17-tetradecahydro-1H-cyclopenta[a]phenanthren-17-yl)pentanoyl)-3-methylpiperazine-1-carboxylate], the EC50 on LXRβ is greater than 10 µM. The same compound displayed an IC50 at SREBP-2 of less than 0.25 µM.
